Molecules are shown by their SMILES. “Also recorded” adds a separate entry of the source. A value given as a limit tells only on which side of the number the result lay.

Data set [1] can be described thus: Solubility of Levodopa in HCl and after raising the pH with glucose. The data set is classed as physicochemical. On the procedure: Levodopa can be dissolved in HCl up to 100 mg/mL without any precipitation. To raise the pH with glucose in a way according to the invention and still get a stabile solution, it is possible to obtain 10 mg/mL Levodopa, and with 2 mg/mL Carbidopa addition 20 mg/mL Levodopa. A precipitate appears at 30 mg/mL Levodopa in the presence of 3 mg/mL Carbidopa. The steps of producing the solutions of the invention are made rather quickly up to the addition of glucose.

The test system of another data set is PD patients. Description: Continuous intravenous infusion of Levodopa in PD patients. The data set is classed as in vivo, human. As for the experimental part: Continuous infusion of Levodopa has been given to PD patients during 12 hours a day for 10 days. The daily dosage of Levodopa was 608 mg and the infusion rate was 51 mg/h. Fifty % of the patients received traditional oral administration of Carbidopa and 50% received Benserazide.

The next data set deals with patient. As to the kind of experiment: Subcutaneous continuous infusion of Levodopa in a patient. The data set is classed as in vivo, human.
For data set [2] the following is noted: cited from earlier work.
For data set [3] the following is noted: dissolved in HCl and diluted with glucose, Levodopa only active ingredient; cited from earlier work.

On to `N[C@@H](Cc1ccc(O)c(O)c1)C(=O)O` [Levodopa, 3-(3,4-dihydroxiphenyl)-L-alanine], for which the “Levodopa concentration dissolved without any precipitation” value in data set [1] (in HCl) is “up to 100 mg/mL”. For the same molecule, the “Levodopa concentration at which a precipitate appears” value in data set [1] (in the presence of 3 mg/mL Carbidopa) stood at 30 mg/mL. In addition, the “Levodopa concentration obtainable as stabile solution” value in data set [1] (pH raised with glucose according to the invention, no Carbidopa) stood at 10 mg/mL. For the same molecule, the “Levodopa concentration obtainable as stabile solution” value in data set [1] (pH raised with glucose, with 2 mg/mL Carbidopa addition) is 20 mg/mL. In addition, the “follow-up time at which the long-term effect was stable” value with PD patients (after the concluded infusion) is given as 6-10 months. The “clinical fluctuations (dyskinesia and bradykinesia)” value in the data set with PD patients (intravenous, 12 hours a day for 10 days, 608 mg daily, seventeen patients, preliminary) is “both bradykinesia and above all dyskinesia decline; also recorded: pronounced decrease in clinical fluctuations”. In addition, in the data set on PD patients (intravenous, 12 hours for 10 days), the “duration of the long-lasting effect” value is listed as “at least 5 months”. In the data set with PD patients (person, PD for 20 years), the “dyskinesia during infusion treatment, single case” value was “dyskinesia disappeared almost completely”. Moreover, the “therapeutic interval from analysis of Levodopa in plasma” value in the data set with PD patients (plasma, not uniform in the material) is on record as “widening of the therapeutic interval”. Moreover, the “required oral Levodopa dosage, post-treatment (mean)” value in the data set with PD patients (seventeen patients, after intravenous infusion treatment) was 773 mg/day. The “required oral Levodopa dosage, pre-treatment (mean)” value with PD patients (seventeen patients, before intravenous infusion treatment) came out at 1003 mg/day. The “Levodopa blood concentrations during the day” value in the data set on patient (same patient, one day of continuous intravenous infusion) is listed as “some fluctuations of the Levodopa blood concentrations occurred”. In the data set on patient (subcutaneous infusion), the clinical effect result is listed as “positive clinical effect; also recorded: good clinical effect” and the “distribution of Levodopa to the blood” value was “fast distribution of Levodopa to the blood with measurable concentrations”. The “dose dependence of response” value with patient (subcutaneous infusions, one patient) was “responded in a dose dependant manner”. Also, the “delay in concentration levels between plasma and CNS” value in data set [2] (in vivo) is “about 90 minutes”. Also, the “fraction of the total dose that enters the blood circulation” value in data set [2] (oral administration) was “approximately 10%”. Further, in data set [3], the “Levodopa concentration above which Levodopa precipitates” value is greater than 5 mg/mL.

The values above are taken from patent US8735382B2, “Infusion and injection solution of levodopa” (Dizlin Medical Design AB, priority 2004, dated 2014).
